Measured values published in patent US4450173A, “Compounds and method for treatment or prophylaxis of cardiac disorders” (American Hospital Supply Corporation, priority 1982, dated 1984).
Read-outs that look alike come from different tables or passages of the source.

What was measured:
[1] = Disappearance in vitro in human whole blood; type: in vitro ADME; details: 50 μg in 1 mL added to 1 mL human whole blood, 37° C.; read-out: T1/2 Human Whole Blood
Method: (§1) The rate of disappearance of a compound is expressed as the half-life (T1/2), which is the time period in which one-half of the initial amount of compound tested disappears. In each experiment, 1 mL of a solution containing 50 μg of the test compound was added to 1 mL of whole blood or 1 mL of a 33% (w/v) liver homogenate. […] At the designated time periods, the test mixtures were removed from the incubator and transferred to a 0° C. ice bath. Acetonitrile (2 mL) was immediately added and the mixtures were mixed to stop enzymatic hydrolysis. Zero time samples were prepared by adding 2 mL of acetonrile to denature the proteins prior to addition of the test compounds. […] The half life of each test compound was determined graphically by plotting the decrease in concentration as a function of time.

[2] = Disappearance in vitro in dog whole blood; type: in vitro ADME; details: 50 μg in 1 mL added to 1 mL dog whole blood, 37° C.; read-out: T1/2 Dog Whole Blood
Method: as §1

[3] = tested on: guinea pig right atria and guinea pig tracheal strips; assay: Cardioselectivity, KB tracheal/KB atrial; type: cell-based
Method: Several of the compounds of the present invention were tested for β-blocking activity in vitro using guinea pig right atria and guinea pig tracheal strips mounted in a tissue bath containing oxygenated (95% O2 -5% CO2) Krebs physiological salt solution at 37° C. Each tissue was suspended between a fixed glass rod and a Statham® Universal Transducer connected to a Beckman® recorder. Atria were allowed to beat spontaneously under a loading tension of approximately 0.5 gm. Intrinsic depressant for stimulant activity was determined for each compound by progressively increasing concentrations in the tissue baths at 60-minute intervals. Tissues were not washed between increments. […]. Changes in rate in response to isoproterenol were measured in the absence and presence of test compounds. Spiral strips of guinea pig trachea were suspended under 5 gm resting tension and incubated with phentolamine, tropolone and cocaine. Active tension was generated by addition of carbachol (3.0×10^-7 M) and decreases in tension in response to isoproterenol were quantitated. Cumulative concentration-response curves were produced with isoproterenol both before and after 60 minute incubation of test compounds with atria and trachea. The blocking potency of test compounds was estimated by computing pA2 values (-log KB) by the method of Furchgott, The Pharmacological Differentiation of Adrenergic Receptors, Ann. N.Y. Acad. Sci.; 139: 553-570 (1967). Comparison of blockade of right atrial and tracheal responses to isoproterenol permitted assessment of cardioselectivity of test compounds; […]. A ratio greater than one indicates cardioselectivity. […]

[4] = molecular target: guinea pig tracheal strips (Cavia porcellus, UniProt Q8K4Z4); assay: cell-based; type: cell-based; details: guinea pig trachea, carbachol tension, isoproterenol, 60 minute incubation, pA2 = -log KB
Method: Each tissue was suspended between a fixed glass rod and a Statham® Universal Transducer connected to a Beckman® recorder. Atria were allowed to beat spontaneously under a loading tension of approximately 0.5 gm. Intrinsic depressant for stimulant activity was determined for each compound by progressively increasing concentrations in the tissue baths at 60-minute intervals. Tissues were not washed between increments. […] Changes in rate in response to isoproterenol were measured in the absence and presence of test compounds. Spiral strips of guinea pig trachea were suspended under 5 gm resting tension and incubated with phentolamine, tropolone and cocaine. Active tension was generated by addition of carbachol (3.0×10^-7 M) and decreases in tension in response to isoproterenol were quantitated. Cumulative concentration-response curves were produced with isoproterenol both before and after 60 minute incubation of test compounds with atria and trachea. The blocking potency of test compounds was estimated by computing pA2 values (-log KB) by the method of Furchgott, The Pharmacological Differentiation of Adrenergic Receptors, Ann. […] A ratio greater than one indicates cardioselectivity.

[5] = Disappearance in vitro in dog liver homogenate; type: in vitro ADME; details: 50 μg in 1 mL added to 1 mL of 33% (w/v) dog liver homogenate, 37° C.; read-out: T1/2 Dog Liver Homogenate
Method: as §1

[6] = tested on: heart rate response to isoproterenol (β-receptor mediated tachycardia); assay: Duration of β-blockade in vivo in anesthetized dogs, 40-minute infusion; design: species or system dog; details: for ED50: Canis lupus familiaris, iv, 40 min, read-out: Potency (mg/kg/40 min); for 80% Recovery Time: after 40-minute infusion, normalized to 50% inhibition, dogs
Method: (§2) The duration of β-blockade was determined in vivo using pentobartital-anesthetized dogs instrumented for measurement of heart rate using a Beckman® cardiotachometer triggered electronically by a phasic aortic blood pressure signal. Both vagus nerves were severed in the cervical region and the animals were mechanically ventilated. Two experimental designs were used. The first employed a 40-minute infusion of test compound and the second used a 3-hour infusion of test compound. In the 40-minute model, isoproterenol was infused into a foreleg vein at the rate of 0.5 μg/kg/min to induce a β-receptor mediated tachycardia. Various doses of test compound are then infused into a femoral vein over a period of 40 minutes. This infusion was then terminated and recovery from blockade was quantitated. […] This cumulative dose is expressed as mg/kg and is an indication of potency. The time period required for 80% recovery of heart rate response for each dose of test drug was also measured to quantitate duration of action. […] Test compounds were dissolved in 0.9% NaCl and infused at a rate of 0.05 mL/kg/min or less. In the 3-hour infusion model, bolus doses of isoproterenol (0.4 μg/kg) were used to assess the degree of β-blockade and recovery from β-blockade after termination of the infusion. The doses were spaced at 10-minute intervals and were given before, during and following the infusion of test compounds. The infusion rate was adjusted so that at the end of the 3-hour infusion period the degree of isoproterenol inhibition averaged about 50% of control.

[7] = tested on: heart rate response to isoproterenol; assay: Duration of β-blockade in vivo in anesthetized dogs, 3-hour infusion; design: species or system dog
Method: as §2

Sequence of guinea pig tracheal strips (Q8K4Z4 whole entry): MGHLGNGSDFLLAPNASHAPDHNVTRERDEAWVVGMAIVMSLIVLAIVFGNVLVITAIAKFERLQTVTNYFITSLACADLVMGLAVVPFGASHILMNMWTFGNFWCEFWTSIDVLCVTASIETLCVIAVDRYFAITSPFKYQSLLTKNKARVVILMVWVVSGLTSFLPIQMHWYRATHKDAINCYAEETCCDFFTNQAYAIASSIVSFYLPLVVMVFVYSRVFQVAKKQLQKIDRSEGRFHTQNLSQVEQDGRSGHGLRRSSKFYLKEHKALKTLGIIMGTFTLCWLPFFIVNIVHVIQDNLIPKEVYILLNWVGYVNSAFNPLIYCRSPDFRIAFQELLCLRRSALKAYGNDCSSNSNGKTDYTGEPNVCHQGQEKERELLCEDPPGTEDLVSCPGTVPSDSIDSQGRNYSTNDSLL

Row | SMILES | half-life [1] [h] | half-life [2] [h] | Cardioselectivity [3] | pA2 Trachea [4] | half-life [5] [min] | ED50 [6] [mg/kg] | 80% Recovery Time [6] [min] | ED50 ([7]; Canis lupus familiaris, iv, 3-hour infusion, bolus isoproterenol 0.4 μg/kg, read-out: Potency (mg/kg/180 min)) [mg/kg] | 80% Recovery Time ([7]; after 3-hour infusion) [min] | % I (Percent inhibition of heart rate response to isoproterenol) ([7]; end of 3-hour infusion, bolus isoproterenol 0.4 μg/kg) [%] | Cardioselectivity ([3]; ratio KB tracheal/KB atrial, greater than one indicates cardioselectivity)
1 | CCOC(=O)CCCCNCC(O)COc1ccccc1C (centres unmarked) [XII] | 1.55 ± 0.5 | 2.53 ± 1.18 | 2.5 | 7.4 | 8.8 ± 6 | 6.8 ± 3.7 | 11 ± 2 |  |  |  | 
2 | CCOC(=O)CCNCC(O)COc1ccccc1C (centres unmarked) [X] | 2.58 ± 0.15 | 3 |  | 7.4 | 3 ± 1 | 0.99 ± 0.27 | 14 ± 2 | 6.8 | > 60 | 69 ± 5 | 1
